Measurements taken from patent US20100204460A1, “NATURAL BRASSINOSTEROIDS FOR USE FOR TREATING HYPERPROLIFERATION, TREATING PROLIFERATIVE DISEASES AND REDUCING ADVERSE EFFECTS OF STEROID DYSFUNCTION IN MAMMALS, PHARMACEUTICAL COMPOSITION AND ITS USE” (priority 2007, published 2010).

Assays:
[1] = tested on: MCF-7, LNCaP and DU-145 cancer cell lines; assay: MTT cytotoxicity test, summary over cell lines; format: cell-based; conditions: over cell lines except MDA-MB-468; 24 h; read-out: IC50 value around which the cell lines move (MTT)
Procedure: Stock solutions ([…]) were prepared by dissolving relevant quantity of substance in DMSO cultivation media (DMEM, RPMI 1640, F-12 medium), fetal bovine serum (FBS), L-glutamine, penicillin, and streptomycin were purchased from Sigma (MO, USA). 3-(4,5-Dimethylthiazol-2-yl)-2,5-diphenyltetrazolium bromide (MTT) was from Serva Electrophoresis (Heidelberg, Germany). Monoclonal mouse anti-bromodeoxyuridine (BrdU) intibody was obtained from DakoCytomation (Glostrup, Denmark). Calcein AM was obtained from PAA Laboratories GmbH (Pasching, Austria). […]
Cell viability in this case was assessed by 3-(4,5-dimethylthiozol-2-yl)-2,5-diphenyltetrazolium bromide (MTT) to determine IC50 concentrations of studied agents as described previously. […] The absorbance was read using an ELISA reader Labsystem Multiscan RC at 570 nm. […]

[2] = tested on: DU-145 cells; assay: Western blot of cell cycle and apoptosis related proteins, DU-145; format: cell-based; conditions: for MDM-2 level (Western blot) / anti-apoptotic protein Bcl-2 expression (Western blot): IC50 for 6, 12, 24 h vs untreated control; for p53 expression (Western blot): vs untreated control
Procedure: The cells were seeded in a density 1.6×10^4 cells/cm^2 (LNCaP), 1.4×10^4 cells/cm^2 (DU-145, MDA-MB-468 and MCF-7) using culture medium in 100-mm culture Petri dishes. After reaching of 70-80% confluence, the cells were treated with tested compounds 9 in concentration IC50 that were evaluated by MTT analysis described above. DMSO was used as a vehicle for controls. After 6, 12 and 24 h treatment, the cells were washed with cold PBS and scraped in ice-cold protein extract ion buffer (50 mM HEPES, pH 7.5; 150 mM NaCl; 1 mM EDTA; 2.5 mM EGTA; 10% glycerol; 0.1% Tween 20) with protease and phosphatase inhibitors (25 μL/mL phenylmethanesulphonyl fluoride; 2.5 μL/mL leupeptin; 0.1 mM Na3VO4; 2.5 μL/mL aprotinin; 10 mM β-glycerol-phosphate; 1 mM dithiothreitol). The lysates were collected into microfuge tube and incubated on ice for 1 h. Cells were incubated 60 min at 4° C. under time by time shaking in protein extraction buffer. After centrifugation at 45 000×g for 30 min at 4° C., supernatant was collected, aliquoted, and stored at −80° C. The protein content in the lysates was measured by a Bredford assay (Bio-Rad Laboratories, Hercules, Calif., USA) according to the manufacture's protocol.
For Western blot analysis, equal aliquots of proteins (15-30 μg/well) were loaded on 10% or 12% SDS-PAGE gels and transferred onto nitrocellulose membranes (Amersham Biosciences, Vienna, Austria) by semi-dry electrophoretic transfer. Coloured marker (Rainbow™, Amersham Biosciences, Vienna, Austria) was used as a protein molecular weight standard. The non-specific binding sites were blocked by incubating the blot with 5% (w/v) non-fat dry milk in PBS for 2 h. The blot was incubated overnight in 4° C. with appropriate primary antibody that detects the protein epitope of interest and finally washed in PBS with 0.1% Tween 20 for 1 h. The blot was incubated with the diluted secondary goat anti-mouse IgG-horseradish peroxidase conjugated antibody (dilution 1:6000, Santa Cruz Biotechnology, Santa Cruz, Calif., USA) or goat anti-rabbit IgG-horseradish peroxidase conjugated antibody (dilution 1:2000, DakoCytomation, Glostrup, Denmark) for 45 min in 4° C. The membrane was washed in PBS with 0.1% Tween 20 for 1 h. The proteins were detected using a chemiluminescence detection system (Amersham Biosciences, Vienna, Austria) according to the protocol provided by the manufacturer. Equality of loaded proteins was confirmed by Ponceau S membrane staining (Sigma, St. Louis, Mo., USA) and by detection of anti-tubulin-α or anti-mcm-7 antibodies. The experiments were repeated three times. The protein expressions in treated cells were compared to untreated controls.
Western blot analysis was used to detect changes in apoptosis related protein expression in breast and prostate cancer cell lines. […] This decreased expression of Bid can indicate a cleavage of the protein after treatment by BRs. In DU-145 cell line, expression of pro-apoptotic proteins Bax and Bid was unchanged. […] On the other hand, caspase cleavage was not found in DU-145 cells. Poly-(ADP-ribose) polymerase (PARP) positive expression in controls of prostate cancer cell lines was observed but brassinosteroids had no effect on its expression nor on its degradation within the period 6/12/24 h (FIG. 6B).

SMILES | IC50 [1] [µM] | MDM-2 level (Western blot) [2] | anti-apoptotic protein Bcl-2 expression (Western blot) [2] | p53 expression (Western blot) [2]
CC(C)[C@@H](C)[C@@H](O)[C@H](O)[C@@H](C)[C@H]1CC[C@H]2[C@@H]3COC(=O)[C@H]4C[C@H](O)[C@H](O)C[C@]4(C)[C@H]3CC[C@]12C [Brassinosteroid 6, 24-Epibrassinolide] | ~61.7 | decreased level of MDM-2 in all time points | decreased after treatment with 9 (6, 12 and 24 h) or 6 (6 and 24 h) | no p53 expression changes
CC[C@@H](C(C)C)[C@@H](O)[C@H](O)[C@@H](C)[C@H]1CC[C@H]2[C@@H]3CC(=O)[C@H]4C[C@H](O)[C@H](O)C[C@]4(C)[C@H]3CC[C@]12C [Brassinosteroid 9, 28-Homocastasterone] | ~43.3 | decreased level of MDM-2 in all time points | decreased after treatment with 9 (6, 12 and 24 h) | no p53 expression changes
